According to ChEMBL document CHEMBL5625228, “Design, synthesis, and bioactivity evaluation of novel amide/sulfonamide derivatives as potential anti-inflammatory agents against acute lung injury and ulcerative colitis” (Eur J Med Chem, 2023):
Calls of active or inactive are those of the source. No cut-off for these calls is given here.

Experiments:
J774.A1 [1] = experiment: Antiinflammatory activity against mouse J774.A1 cells assessed as inhibition of LPS-induced IL-6 production pretreated with compound for 30 mins followed by LPS induction and measured after 24 hrs by ELISA analysis; type: functional; details: for inhibition (INH): time 1470 min, 24.5 h; for INH: test concentration or dose not given here
J774.A1 [2] = experiment: Antiinflammatory activity against mouse J774.A1 cells assessed as inhibition of LPS-induced TNF-alpha production pretreated with compound for 30 mins followed by LPS induction and measured after 24 hrs by ELISA analysis; type: functional; details: for inhibition (INH): time 1470 min, 24.5 h; for INH: test concentration or dose not given here
J774.A1 [3] = experiment: Antiinflammatory activity against mouse J774.A1 cells assessed as inhibition of LPS-induced IL-6 release preincubated with compound for 30 mins followed by LPS-induction and measured after 24 hrs by ELISA analysis; type: functional, cell-based
J774.A1 [4] = experiment: Antiinflammatory activity against mouse J774.A1 cells assessed as inhibition of LPS-induced TNF-alpha release preincubated with compound for 30 mins followed by LPS-induction and measured after 24 hrs by ELISA analysis; type: functional, cell-based
J774.A1 [5] = experiment: Antiinflammatory activity against LPS-induced mouse J774.A1 cells assessed as effect on IL-6 mRNA level preincubated with compound for 30 mins followed by LPS-induction and measured after 6 hrs by qPCR analysis; type: functional, cell-based; details: time 390.0 min
J774.A1 [6] = experiment: Antiinflammatory activity against LPS-induced mouse J774.A1 cells assessed as downregulation of TNF-alpha mRNA level preincubated with compound for 30 mins followed by LPS-induction and measured after 6 hrs by qPCR analysis; type: functional, cell-based; details: time 390.0 min
J774.A1 [7] = experiment: Antiinflammatory activity against LPS-induced mouse J774.A1 cells assessed as downregulation of IL-6 mRNA level preincubated with compound for 30 mins followed by LPS-induction and measured after 6 hrs by qPCR analysis; type: functional, cell-based; details: time 390.0 min

Structure (SMILES) | inhibition (INH) (J774.A1 [1]) [%] | inhibition (INH) (J774.A1 [2]) [%] | further results
COc1ccc(NS(=O)(=O)CCN2CCN(Cc3cccc([N+](=O)[O-])c3)CC2)cn1 | 30.6 | 34.88 | –
COc1ccc(NS(=O)(=O)CCN2CCN(Cc3ccc([N+](=O)[O-])cc3)CC2)cn1 | 42.48 | 38.83 | –
COc1ccc(NS(=O)(=O)CCN2CCN(c3ccc([N+](=O)[O-])cc3)CC2)cn1 | 54.03 | 47.01 | –
O=[N+]([O-])c1cccc(CN2CCN(CCS(=O)(=O)Nc3ccc4ncccc4c3)CC2)c1 | 54.36 | 23.97 | –
O=C(CCN1CCN(c2ccc([N+](=O)[O-])cc2)CC1)Nc1cccc2ccccc12 | – | – | inhibition (J774.A1 [1]; time 1470.0 min): inactive; inhibition (J774.A1 [2]; time 1470.0 min): inactive
O=C(CN1CCN(Cc2ccccc2)CC1)Nc1cccc2ccccc12 | 37.08 | 40.65 | –
O=S(=O)(CCN1CCN(c2ncccn2)CC1)Nc1cccc2ccccc12 | 10.6 | 12.33 | –
COc1ccc(CN2CCN(CCS(=O)(=O)NCc3ccccn3)CC2)cc1 | 44.03 | 35.94 | –
COc1ccc(CN2CCN(CCS(=O)(=O)Nc3ccc4ncccc4c3)CC2)cc1 | 50.52 | 31.97 | –
COc1ccc(NS(=O)(=O)CCN2CCN(Cc3ccccc3)CC2)cn1 | 13.57 | 16.24 | –
O=S(=O)(CCN1CCN(Cc2ccccc2)CC1)Nc1ccc2ncccc2c1 | 43.09 | 9.54 | –
O=C(CCN1CCN(Cc2ccccc2)CC1)Nc1cccc2ccccc12 | 50.93 | 55.28 | –
O=[N+]([O-])c1cc(S(=O)(=O)NCc2ccccn2)ccc1N1CCN(Cc2ccccc2)CC1 | 69.3 | 50.22 | IC50 (J774.A1 [3]): 4.94 µM; IC50 (J774.A1 [4]): 10.1 µM; Activity (J774.A1 [5]): inactive
O=C(CN1CCN(Cc2ccccc2)CC1)NCc1ccccn1 | 23.3 | 40.91 | –
O=C(CN1CCN(c2ccc([N+](=O)[O-])cc2)CC1)Nc1cccc2ccccc12 | 17.67 | 17.43 | –
COc1ccc(NS(=O)(=O)CCN2CCN(c3ncccn3)CC2)cn1 | 42 | 37.77 | –
COc1ccc(NC(=O)CN2CCN(Cc3cnc(NC(C)=O)s3)CC2)cn1 | 47.13 | 53.08 | –
COc1cc(-c2csc(NC(=O)CCN3CCN(Cc4cccc([N+](=O)[O-])c4)CC3)n2)ccc1O | 78.47 | 41.39 | –
COc1ccc(CN2CCN(CC(=O)NCc3ccccn3)CC2)cc1 | 3.21 | 38.64 | –
O=[N+]([O-])c1cccc(CN2CCN(CCS(=O)(=O)Nc3cccc4ccccc34)CC2)c1 | 39.74 | 48.04 | –
COc1ccc(NC(=O)CN2CCN(c3ncccn3)CC2)cn1 | 33.21 | 47.96 | –
O=C(CCN1CCN(c2ccc([N+](=O)[O-])cc2)CC1)NCc1ccccn1 | 19.64 | 20.88 | –
O=[N+]([O-])c1ccc(CN2CCN(c3ccc(S(=O)(=O)NCc4ccccn4)cc3[N+](=O)[O-])CC2)cc1 | 69.93 | 42.19 | Activity (J774.A1 [6]): Active; IC50 (J774.A1 [3]): 1.32 µM; IC50 (J774.A1 [4]): 8.59 µM; Activity (J774.A1 [7]): Active
O=C(CN1CCN(Cc2cccc([N+](=O)[O-])c2)CC1)Nc1cccc2ccccc12 | 36.57 | 49.62 | –
CC(=O)Nc1ncc(CN2CCN(CCS(=O)(=O)Nc3cccc4ccccc34)CC2)s1 | 43.92 | 25.56 | –
O=[N+]([O-])c1ccc(CN2CCN(CCS(=O)(=O)Nc3cccc4ccccc34)CC2)cc1 | 51.66 | 52.22 | –
COc1ccc(CN2CCN(CCS(=O)(=O)Nc3ccc(OC)nc3)CC2)cc1 | 55.78 | 39.86 | –
O=[N+]([O-])c1ccc(N2CCN(CCS(=O)(=O)Nc3ccc4ncccc4c3)CC2)cc1 | 63.27 | 41.31 | –
O=C(CN1CCN(Cc2ccc([N+](=O)[O-])cc2)CC1)Nc1cccc2ccccc12 | 51.42 | 44.12 | –
